Assay results taken from US20240076347A1, “METHODS FOR PREVENTING FUNGAL INFECTIONS” (Cidara Therapeutics, Inc., priority 2016, published 2024).
Numbered stars: 1 amine (or outer) side, 2 acyl side, 3 side chain; on linkers, the order of the positions; unused ones are H or OH. Bridge positions count the residues as written; N and C are the ends. Square brackets hold non-standard residues; d marks the D form. Peptide text beside a SMILES is read from it. * marks the point of attachment. ξ: configuration not given here. Orn(4R-OH,5R-OCH2CH2NMe3+) = C[N+](C)(C)CCO[C@@H](N[*:3])[C@H](O)C[C@H](N[*:1])C(=O)[*:2]; pTerphenylCO(4''-OnC5H11) = CCCCCOc1ccc(-c2ccc(-c3ccc(C(=O)*)cc3)cc2)cc1; hTyr(3S-OH,4S-OH) = N[C@H](C(=O)O)[C@H](O)[C@@H](O)c1ccc(O)cc1; X1 = C[C@H]1CN([*:1])C(C(=O)[*:2])C1O; Hyp = O=C(O)[C@@H]1C[C@@H](O)CN1; ξT = CC(O)C(N)C(=O)O

Legend:
[1] = tested on: A. fumigatus clinical isolates; assay: MEC, CLSI broth microdilution (M38-A2), SENTRY clinical isolates; format: cell-based, Aspergillus fumigatus; conditions: 153 isolates, 2014 and 2015 SENTRY
Source text: The in vitro activity of CD101 was previously evaluated as part of the SENTRY international surveillance program using CLSI broth microdilution methodology (M38-A2, M27-A3; Pfaller, et al 2017). […] These susceptibility data were then compared graphically to CD101 plasma concentrations from studies in healthy adults, adjusted for plasma protein binding. Nonclinical efficacy in a murine model of Pneumocystis pneumonia were also considered to evaluate CD101 doses for clinical investigation of antifungal prophylaxis.
The in vitro activity of CD101 was evaluated against 153 A. fumigatus clinical isolates collected as part of the 2014 and 2015 JMI international SENTRY surveillance program. Susceptibility was determined by measuring the minimal effective concentration (MEC) values in accordance with CLSI broth microdilution guidelines (M38-A2). In vivo tissue distribution of CD101 in SD rats (N=3/time up to 5 d) after a 5 mg/kg IV CD101 dose. Plasma/tissue concentrations were measured by LC-MS/MS.

[2] = tested on: Candida albicans ATCC SC5314; assay: MIC used for free drug plasma concentration over MIC, candidiasis model; format: cell-based
[3] = Pharmacokinetic profile in female rats, SC and IV; conditions: rat, in vivo
Source text: Pharmacokinetic Profile of CD101. The pharmacokinetic (PK) profile of CD101 in female rats (three per group) was characterized.

[4] = tested on: C. glabrata; assay: Neutropenic murine disseminated candidiasis model, PK/PD target determination; format: in vivo, Candida glabrata
Procedure: Infection model. A neutropenic, murine, disseminated candidiasis model was used for the treatment studies. The mice were rendered neutropenic (polymorphonuclear cell count, <100/mm3) by injecting 150 mg/kg of cyclophosphamide (Mead Johnson Pharmaceuticals, Evansville, IN) subcutaneously 4 days before infection, 100 mg/kg of cyclophosphamide 1 day before infection, and additional cyclophosphamide doses (100 mg/kg) on Day 2 and Day 4 after infection to ensure neutropenia throughout the 168 h (7 d) study period. Three mice were included in each treatment and control group.
The organisms were subcultured on SDA plates 24 h prior to infection. The inoculum was prepared by placing 3 to 5 colonies into 5 ml of sterile pyrogen-free 0.15 M NaCl warmed to 35° C. The final inoculum was adjusted to a 0.6 transmittance at 530 nm. The fungal count of the inoculum determined by viable counts on SDA was 6.1±0.2 log10 CFU/ml.
Disseminated infection with the Candida strains was achieved by injection of 0.1 ml of the inoculum via the lateral tail vein 2 h prior to the start of antifungal therapy. At the end of the study period, the animals were sacrificed by CO2 asphyxiation. The kidneys of each mouse were aseptically removed and placed in 0.15 M NaCl at 4° C. The kidneys were homogenized and serially diluted 1:10, and the aliquots were plated onto SDA for viable fungal colony counts after incubation for 24 h at 35° C. The lower limit of detection was 100 CFU/ml. The results are expressed as the mean CFU/kidney for three mice.
Treatment efficacy and pharmacodynamic target determination of CD101. Neutropenic mice were infected with one of 10 Candida strains as described above. […] Five dose levels that varied from 0.25 to 64 mg/kg were administered once in a 0.2-ml volume by IP route for the 168 h study period. Due to enhanced effect against single isolate, additional studies at 0.0156 and 0.0625 mg/kg was examined for C. glabrata 5592. Groups of three mice were used for each dosing regimen and control group. At the end of the treatment period (168 h), the mice were euthanized, and their kidneys were immediately processed for CFU determination as described above.
Data analysis. A sigmoid dose-effect (Hill) model was used to measure the in vivo potency of CD101. The efficacy endpoints included the dose level required to produce a 24 h net static effect (no change in organism burden compared to that at the start of therapy) and the dose required to achieve a 1-log10 reduction in colony counts (relative to the burden at the start of therapy), when achieved. The maximum response (Emax) was measured as the difference in the number of CFU/kidney relative to that of the untreated control animals. The doses associated with the stasis and 1-log10 endpoint for each strain was calculated using the equation: log10 D=[log10 (E/(Emax−E))/N]+log10 ED50, where D is the drug dose, E is the control growth in untreated animals, Emax is the maximal effect, Nis the slope of the dose-response relationship, and ED50 is the dose needed to achieve 50% of the maximal effect. The associated AUC/MIC targets were then calculated for each strain. […] The calculations were performed using both total and free drug concentrations. The coefficient of determination (R^2) was used to estimate the variance that might be due to regression with the PK/PD index. Kruskal-Wallis one-way analysis of variance (ANOVA) was used to determine if the differences in PK/PD targets were significant between the species.

[5] = Median of 3 C. glabrata strains

CCCCCOc1ccc(-c2ccc(-c3ccc(C(=O)N[C@H]4C[C@@H](O)[C@@H](OCC[N+](C)(C)C)NC(=O)C5C(O)[C@@H](C)CN5C(=O)[C@H]([C@@H](C)O)NC(=O)[C@H]([C@H](O)[C@@H](O)c5ccc(O)cc5)NC(=O)[C@@H]5C[C@@H](O)CN5C(=O)C(C(C)O)NC4=O)cc3)cc2)cc1 (stereo partly drawn) [CD101] ({pTerphenylCO(4''-OnC5H11)}-[Orn(4R-OH,5R-OCH2CH2NMe3+)][ξT][Hyp][hTyr(3S-OH,4S-OH)]T[X1]; lactam 1-C)
MEC50 [1]: 0.015 µg/mL | MEC90 [1]: 0.015 µg/mL | MIC [2]: 0.03 µg/mL | Tmax ([3]; SC): 8 to 24 h | bioavailability ([3]; sc, 10 mg/kg): 97% | half-life ([3]; subcutaneous, 10 mg/kg, read-out: t½ (converted)): 48 h | 1 log kill 24 h Ave Free drug AUC/MIC [4]; 5592: 0.36 | 1 log kill free drug AUC0-168 h/MIC [4]; 5592: 2.54 | 1 log kill total drug AUC0-168 h/MIC [4]; 5592: 317.50 | Stasis 24 h Ave free drug AUC/MIC [4]; 5592: 0.05 | Stasis free drug AUC0-168 h/MIC [4]; 5592: 0.35 | Stasis total drug AUC0-168 h/MIC [4]; 5592: 43.16 | 1 log kill dose ([4]; 5592, single IP dose, 168 h): 0.43 mg/kg | Static dose ([4]; 5592, single IP dose, 168 h): 0.06 mg/kg | 1 log kill 24 h Ave Free drug AUC/MIC [4]; 10956: 1.20 | 1 log kill free drug AUC0-168 h/MIC [4]; 10956: 8.42 | 1 log kill total drug AUC0-168 h/MIC [4]; 10956: 1052.22 | Stasis 24 h Ave free drug AUC/MIC [4]; 10956: 0.48 | Stasis free drug AUC0-168 h/MIC [4]; 10956: 3.35 | Stasis total drug AUC0-168 h/MIC [4]; 10956: 418.68 | 1 log kill dose ([4]; 10956, single IP dose, 168 h): 17.25 mg/kg | Static dose ([4]; 10956, single IP dose, 168 h): 6.29 mg/kg | 1 log kill 24 h Ave Free drug AUC/MIC [4]; 35315: 0.42 | 1 log kill free drug AUC0-168 h/MIC [4]; 35315: 2.94 | 1 log kill total drug AUC0-168 h/MIC [4]; 35315: 367.06 | Stasis 24 h Ave free drug AUC/MIC [4]; 35315: 0.07 | Stasis free drug AUC0-168 h/MIC [4]; 35315: 0.50 | Stasis total drug AUC0-168 h/MIC [4]; 35315: 62.50 | 1 log kill dose ([4]; 35315, single IP dose, 168 h): 2.39 mg/kg | Static dose ([4]; 35315, single IP dose, 168 h): 0.34 mg/kg | 1 log kill 24 h Ave Free drug AUC/MIC ([4]; Mean of 3 C. glabrata strains): 0.66 | 1 log kill dose ([4]; Mean of 3 C. glabrata strains): 6.69 mg/kg | 1 log kill free drug AUC0-168 h/MIC ([4]; Mean of 3 C. glabrata strains): 4.63 | 1 log kill total drug AUC0-168 h/MIC ([4]; Mean of 3 C. glabrata strains): 578.93 | Stasis 24 h Ave free drug AUC/MIC ([4]; Mean of 3 C. glabrata strains): 0.20 | Stasis free drug AUC0-168 h/MIC ([4]; Mean of 3 C. glabrata strains): 1.40 | Stasis total drug AUC0-168 h/MIC ([4]; Mean of 3 C. glabrata strains): 174.78 | Static dose ([4]; Mean of 3 C. glabrata strains): 2.23 mg/kg | 1 log kill 24 h Ave Free drug AUC/MIC [4, 5]: 0.42 | 1 log kill dose [4, 5]: 2.39 mg/kg | 1 log kill free drug AUC0-168 h/MIC [4, 5]: 2.94 | 1 log kill total drug AUC0-168 h/MIC [4, 5]: 367.06 | Stasis 24 h Ave free drug AUC/MIC [4, 5]: 0.07 | Stasis free drug AUC0-168 h/MIC [4, 5]: 0.5 | Stasis total drug AUC0-168 h/MIC [4, 5]: 62.50 | Static dose [4, 5]: 0.34 mg/kg | kill at high doses ([4]; a number of strains, kidney burden, 168 h): > 2 log10 | free AUC/MIC targets lower than the three comparator echinocandins ([4]; in vivo): > 10 fold
